Laboratory results reported in ChEMBL document CHEMBL4673345 (J Med Chem, 2020).
The source made the active and inactive calls. No cut-off for these calls is given here.

Tests used:
[1] = Inhibition of ABCB1 in multidrug-resistant human SW620/Ad300 cells assessed as increase in reversal of resistance to paclitaxel-induced cytotoxicity by measuring paclitaxel IC50 pre-incubated for 4 hrs followed by paclitaxel addition and measured after 72 hrs by MTT assay (reference value: 4.23 +/- 0.6 uM)
SW-620 [2] = assay: Effect on ABCB1 subcellular localization in human SW620/Ad300 cells at 20 uM incubated for 72 hrs by Western blotting analysis; type: functional, cell-based
[3] = Reversal of resistance to paclitaxel-induced cytotoxicity in human KB-3-1 cells assessed as reduction in paclitaxel IC50 at 10 uM pre-incubated for 4 hrs followed by paclitaxel addition and measured after 72 hrs by MTT assay; type: functional; conditions: time 76 hrs
[4] = Toxicity in BALB/c mouse xenografted with human SW620/Ad300 cells assessed as induction of liver injury at 20 mg/kg/day, ig by H and E staining based assay; type: organism-based; conditions: in vivo, po
[5] = target: T1, ATP-dependent translocase ABCB1 (Homo sapiens, UniProt P08183); assay: Stimulation of ABCB1 ATPase activity (unknown origin) assessed as increase in inorganic phosphate release at 5 to 45 uM incubated for 20 mins in presence of Mg-ATP by spectrophotometry; conditions: dose 5-45 µM
[6] = Toxicity in BALB/c mouse xenografted with human SW620/Ad300 cells assessed as effect on body weight changes at 20 mg/kg/day, ig; type: organism-based; conditions: in vivo, po
SW-620 [7] = assay: Antitumor activity against human SW620/Ad300 cells xenografted in BALB/c mouse assessed as reduction in tumor volume at 20 mg/kg/day, ig for 21 days; type: functional, organism-based; conditions: time 21.0 day
[8] = Reversal of resistance to paclitaxel-induced cytotoxicity against human SW620 cells by measuring reduction in paclitaxel IC50 at 20 uM pre-incubated for 4 hrs followed by paclitaxel addition and measured after 72 hrs by MTT assay; type: functional, SW-620; conditions: time 76 hrs
SW-620 [9] = assay: Antitumor activity against human SW620/Ad300 cells xenografted in BALB/c mouse assessed as induction of tumor apoptosis by measuring nuclear pyknosis at 20 mg/kg/day, ig for 21 days by TUNEL assay; type: functional, organism-based; conditions: time 21.0 day
SW-620 [10] = assay: Effect on intracellular PTX concentration in human SW620 cells at 20 uM pre-incubated for 4 hrs followed by PTX addition and measured after 2 hrs by liquid scintillation counting analysis; type: functional, cell-based; conditions: time 6.0 hrs
Cytochrome P450 3A4 = Cytochrome P450 3A4 (Homo sapiens, UniProt P08684); assay: Activation of CYP3A4 in human liver microsomes at 30 uM incubated for 10 mins in presence of CYP3A4 substrate/NADP+ by fluorescence based assay; type: ADME
SW-620 [11] = assay: Potentiation of PTX-induced antitumor activity against human SW620/Ad300 cells xenografted in BALB/c mouse assessed as reduction in tumor weight at 20 mg/kg/day, ig for 21 days relative to PTX alone; type: functional, organism-based; conditions: time 21.0 day
[12] = Reversal of resistance to paclitaxel-induced cytotoxicity in human KB-3-1 cells assessed as reduction in paclitaxel IC50 at 20 uM pre-incubated for 4 hrs followed by paclitaxel addition and measured after 72 hrs by MTT assay; type: functional; conditions: time 76 hrs
SW-620 [13] = assay: Inhibition of [3H]PTX efflux in human SW620 cells at 20 uM pre-incubated for 4 hrs followed by PTX addition and measured after 2 hrs by liquid scintillation counting analysis; type: functional, cell-based; conditions: time 6.0 hrs
[14] = Reversal of resistance to paclitaxel-induced cytotoxicity in HEK293 cells assessed as reduction in paclitaxel IC50 at 10 uM pre-incubated for 4 hrs followed by paclitaxel addition and measured after 72 hrs by MTT assay; type: functional, Homo sapiens; conditions: time 76 hrs
CYP3A4 = CYP3A4 (Homo sapiens, UniProt P08684); assay: Activation of CYP3A4 in human liver microsomes at 20 uM after 30 mins in presence of CYP3A4 substrate/NADP+ by fluorescence based assay; type: ADME; conditions: read-out: FC
SW-620 [15] = assay: Effect on ABCB1 protein expression in human SW620/Ad300 cells at 20 uM incubated for 72 hrs by Western blotting analysis; type: functional, cell-based
[16] = target: Multidrug resistance-associated protein 1 (Homo sapiens, UniProt P33527); assay: Stabilization of ABCC1 in human SW620/Ad300 cells assessed as inhibition of high temperature-induced ABCB1 protein degradation at 200 uM incubated for 30 mins by cellular thermal shift assay; type: cell-based; conditions: sw-620, 0.5 h
SW-620 [17] = assay: Potentiation of PTX-induced antitumor activity against human SW620/Ad300 cells xenografted in BALB/c mouse assessed as reduction in tumor volume at 20 mg/kg/day, ig for 21 days relative to PTX alone; type: functional, organism-based; conditions: time 21.0 day
[18] = Reversal of resistance to paclitaxel-induced cytotoxicity against human SW620 cells by measuring reduction in paclitaxel IC50 at 10 uM pre-incubated for 4 hrs followed by paclitaxel addition and measured after 72 hrs by MTT assay; type: functional, SW-620; conditions: time 76 hrs
[19] = target: T1, ATP-dependent translocase ABCB1; assay: Stabilization of ABCB1 in human SW620/Ad300 cells assessed as inhibition of high temperature-induced ABCB1 protein degradation at 200 uM incubated for 30 mins by cellular thermal shift assay; type: cell-based; conditions: sw-620, 0.5 h
[20] = Toxicity in BALB/c mouse xenografted with human SW620/Ad300 cells assessed as induction of mortality at 20 mg/kg/day, ig; type: organism-based; conditions: in vivo, po
SW-620 [21] = assay: Antitumor activity against human SW620/Ad300 cells xenografted in BALB/c mouse assessed as induction of tumor death by measuring nuclear pyknosis at 20 mg/kg/day, ig for 21 days by H and E staining based assay; type: functional, organism-based; conditions: time 21.0 day
[22] = Reversal of resistance to paclitaxel-induced cytotoxicity in HEK293 cells assessed as reduction in paclitaxel IC50 at 20 uM pre-incubated for 4 hrs followed by paclitaxel addition and measured after 72 hrs by MTT assay; type: functional, Homo sapiens; conditions: time 76 hrs
SW-620 [23] = conditions: Homo sapiens, dose 6.0 mg/kg/day, time 21.0 day
SW-620 [24] = assay: Effect on intracellular PTX concentration in human SW620 cells at 4 uM pre-incubated for 4 hrs followed by PTX addition and measured after 2 hrs by liquid scintillation counting analysis; type: functional, cell-based; conditions: time 6.0 hrs
[25] = Toxicity in human SW-620/Ad300 cells assessed as cell viability at 20 uM incubated for 72 hrs by MTT assay; type: cell-based; conditions: read-out: Activity

T1 sequence (P08183 whole entry): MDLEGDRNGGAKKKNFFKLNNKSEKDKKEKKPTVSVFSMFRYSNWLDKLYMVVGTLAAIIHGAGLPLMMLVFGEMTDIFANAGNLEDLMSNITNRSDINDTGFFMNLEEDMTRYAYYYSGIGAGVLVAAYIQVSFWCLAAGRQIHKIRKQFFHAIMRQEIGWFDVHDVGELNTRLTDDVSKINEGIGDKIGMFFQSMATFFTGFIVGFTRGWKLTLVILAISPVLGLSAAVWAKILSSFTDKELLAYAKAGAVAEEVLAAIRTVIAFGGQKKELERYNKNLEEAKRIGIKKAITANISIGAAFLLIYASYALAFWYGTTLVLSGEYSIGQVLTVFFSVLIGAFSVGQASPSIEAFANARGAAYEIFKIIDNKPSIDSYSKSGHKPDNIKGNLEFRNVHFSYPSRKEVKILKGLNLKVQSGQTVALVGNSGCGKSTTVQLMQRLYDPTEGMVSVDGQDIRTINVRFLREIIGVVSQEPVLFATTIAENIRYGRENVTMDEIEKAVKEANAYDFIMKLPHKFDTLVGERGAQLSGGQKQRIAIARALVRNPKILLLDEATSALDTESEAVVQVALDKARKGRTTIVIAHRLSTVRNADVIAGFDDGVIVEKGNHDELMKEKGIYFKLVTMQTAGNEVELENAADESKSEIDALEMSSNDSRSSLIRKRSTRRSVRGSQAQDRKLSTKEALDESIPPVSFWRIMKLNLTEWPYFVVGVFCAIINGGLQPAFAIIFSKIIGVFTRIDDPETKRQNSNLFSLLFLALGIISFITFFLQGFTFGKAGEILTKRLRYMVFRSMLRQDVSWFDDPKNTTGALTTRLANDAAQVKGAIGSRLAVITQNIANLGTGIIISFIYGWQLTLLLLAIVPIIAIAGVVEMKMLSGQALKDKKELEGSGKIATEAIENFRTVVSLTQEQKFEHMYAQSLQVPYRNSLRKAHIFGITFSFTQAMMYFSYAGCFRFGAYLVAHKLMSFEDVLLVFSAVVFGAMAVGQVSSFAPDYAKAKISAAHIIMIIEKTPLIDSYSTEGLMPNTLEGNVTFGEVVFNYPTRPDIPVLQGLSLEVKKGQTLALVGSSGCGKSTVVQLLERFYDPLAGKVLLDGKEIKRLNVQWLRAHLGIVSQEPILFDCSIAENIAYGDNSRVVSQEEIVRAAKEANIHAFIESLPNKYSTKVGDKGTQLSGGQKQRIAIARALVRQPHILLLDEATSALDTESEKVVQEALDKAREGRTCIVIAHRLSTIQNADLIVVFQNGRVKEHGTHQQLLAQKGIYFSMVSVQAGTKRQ
Chain of CYP3A4 (P08684 whole entry): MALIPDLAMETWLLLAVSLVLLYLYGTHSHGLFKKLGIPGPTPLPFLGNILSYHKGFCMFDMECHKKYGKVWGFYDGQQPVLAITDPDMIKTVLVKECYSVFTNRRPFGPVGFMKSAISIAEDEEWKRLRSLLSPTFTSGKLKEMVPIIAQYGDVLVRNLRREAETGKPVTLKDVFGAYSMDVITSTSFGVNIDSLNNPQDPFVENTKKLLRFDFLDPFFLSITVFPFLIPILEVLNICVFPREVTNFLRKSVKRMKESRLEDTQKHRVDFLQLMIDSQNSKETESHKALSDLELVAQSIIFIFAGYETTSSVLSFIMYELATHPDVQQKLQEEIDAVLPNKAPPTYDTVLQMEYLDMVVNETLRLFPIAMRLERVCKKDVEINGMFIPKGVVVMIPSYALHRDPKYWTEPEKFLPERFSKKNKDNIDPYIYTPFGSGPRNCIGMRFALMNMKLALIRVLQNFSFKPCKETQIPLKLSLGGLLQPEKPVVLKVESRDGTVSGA
Chain of Cytochrome P450 3A4 (P08684 whole entry): as above
Chain of Multidrug resistance-associated protein 1 (P33527 whole entry): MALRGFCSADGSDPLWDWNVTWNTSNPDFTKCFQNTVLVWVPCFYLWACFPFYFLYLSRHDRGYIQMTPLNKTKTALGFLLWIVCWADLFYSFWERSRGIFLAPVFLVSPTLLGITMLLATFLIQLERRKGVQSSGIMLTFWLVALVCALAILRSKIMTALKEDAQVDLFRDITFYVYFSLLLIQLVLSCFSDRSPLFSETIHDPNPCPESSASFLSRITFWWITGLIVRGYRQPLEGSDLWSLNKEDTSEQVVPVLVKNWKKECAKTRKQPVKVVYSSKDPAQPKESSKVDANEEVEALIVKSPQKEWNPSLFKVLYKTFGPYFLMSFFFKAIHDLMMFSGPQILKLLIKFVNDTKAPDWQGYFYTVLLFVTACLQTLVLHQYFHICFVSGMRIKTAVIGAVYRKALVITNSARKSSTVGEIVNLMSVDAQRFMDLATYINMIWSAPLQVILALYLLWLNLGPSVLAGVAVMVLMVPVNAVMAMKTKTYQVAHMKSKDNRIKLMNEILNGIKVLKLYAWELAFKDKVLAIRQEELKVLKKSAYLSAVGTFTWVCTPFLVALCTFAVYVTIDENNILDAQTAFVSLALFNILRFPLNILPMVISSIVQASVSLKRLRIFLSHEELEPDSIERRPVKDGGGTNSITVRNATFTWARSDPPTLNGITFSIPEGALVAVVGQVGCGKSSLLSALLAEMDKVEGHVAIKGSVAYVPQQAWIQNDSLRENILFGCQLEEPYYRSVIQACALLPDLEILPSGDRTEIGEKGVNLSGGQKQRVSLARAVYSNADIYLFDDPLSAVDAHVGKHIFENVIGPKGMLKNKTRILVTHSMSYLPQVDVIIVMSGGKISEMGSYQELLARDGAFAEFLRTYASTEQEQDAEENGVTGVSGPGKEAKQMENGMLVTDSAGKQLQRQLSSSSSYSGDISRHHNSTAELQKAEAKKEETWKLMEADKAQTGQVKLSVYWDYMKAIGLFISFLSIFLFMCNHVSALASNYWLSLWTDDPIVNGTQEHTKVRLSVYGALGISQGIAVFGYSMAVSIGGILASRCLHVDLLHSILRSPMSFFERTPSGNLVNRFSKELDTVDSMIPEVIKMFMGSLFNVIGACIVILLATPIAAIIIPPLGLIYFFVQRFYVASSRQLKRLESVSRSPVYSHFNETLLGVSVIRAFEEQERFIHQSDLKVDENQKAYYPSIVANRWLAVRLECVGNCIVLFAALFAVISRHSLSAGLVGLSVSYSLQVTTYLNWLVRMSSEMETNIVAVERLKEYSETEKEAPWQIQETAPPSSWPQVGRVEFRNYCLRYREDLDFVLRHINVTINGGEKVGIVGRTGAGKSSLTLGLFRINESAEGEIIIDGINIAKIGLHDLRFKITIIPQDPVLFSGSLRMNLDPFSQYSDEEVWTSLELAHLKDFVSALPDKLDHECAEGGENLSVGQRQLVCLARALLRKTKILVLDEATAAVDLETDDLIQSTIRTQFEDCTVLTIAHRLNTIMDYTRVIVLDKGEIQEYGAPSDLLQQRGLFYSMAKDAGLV

Q: For Cc1cc(Nc2cc(F)c(F)cc2F)n2nc(SCc3nc4ccccc4[nH]3)nc2n1, which IC50 [1] is on record?
A: 0.26 µM

Q: For Cc1cc(Nc2c(F)cccc2F)n2nc(SCc3nc4ccccc4[nH]3)nc2n1, which IC50 [1] is on record?
A: 0.79 µM

Q: Which IC50 [1] does the source give for CCc1cc(Nc2ccc(F)cc2)n2nc(SCc3ccccc3)nc2n1 here?
A: 1.61 µM

Q: With Cc1cc(Nc2ccc(O)c(Cl)c2)n2nc(SCc3nc4ccccc4[nH]3)nc2n1 as the molecule, how does the IC50 [1] read?
A: 3.22 µM

Q: Which IC50 [1] does the source give for Cc1cc(Nc2ccccc2)n2nc(SCc3nc4ccccc4[nH]3)nc2n1 here?
A: 0.046 µM

Q: For Cc1ccc(CSc2nc3nc(C)cc(Nc4ccc(F)cc4)n3n2)cc1, which IC50 [1] is on record?
A: 2.04 µM

Q: What does the source list for Cc1cc(Nc2ccc(F)cc2)n2nc(SCc3nc4ccccc4[nH]3)nc2n1?
A: Activity (SW-620 [2]): inactive; fold change (FC) [3]: 1.5; Activity [4]: Non-Toxic; fold change (FC) [5]: 2.5; Activity [6]: Non-Toxic; TGI (SW-620 [7]): inactive; fold change (FC) [8]: 1.5; Activity (SW-620 [9]): Active; Activity (SW-620 [10]): inactive; Activity (Cytochrome P450 3A4): Active; TGI (SW-620 [11]): Active; fold change (FC) [12]: 1.52; inhibition (SW-620 [13]): Active; fold change (FC) [14]: 1.3; fold induction at 0.5 h, 20 µM (CYP3A4): 1.06; Activity (SW-620 [15]): inactive; Activity [16]: Not Active; TGI (SW-620 [17]): Active; fold change (FC) [18]: 1.05; Activity [19]: Active; Activity [20]: Non-Toxic; Activity (SW-620 [21]): Active; fold change (FC) [22]: 1.29

Q: Which results are given for COc1ccc(CCN(C)CCCC(C#N)(c2ccc(OC)c(OC)c2)C(C)C)cc1OC (stereo not given)?
A: TGI (SW-620 [23]): Active; Activity (SW-620 [24]): inactive

Q: Which viability at 72 h, 20 µM [25] does the source give for Cc1cc(Nc2ccc(F)cc2)n2ncnc2n1 here?
A: 93.2%

Q: For Cc1ccccc1Nc1nc(SCc2cn(Cc3ccc(Cl)cc3)nn2)nc(-c2ccccc2)c1C#N, which IC50 [1] is on record?
A: 36 µM

Q: Which IC50 [1] does the source give for COc1ccc(CSc2nc3nc(C)cc(Nc4ccc(F)cc4)n3n2)cc1 here?
A: 1.93 µM

Q: With N#Cc1c(Nc2cccc(Cl)c2)nc(SCC(=O)NC(=O)Nc2ccccn2)nc1-c1ccccc1 as the molecule, how does the IC50 [1] read?
A: 5 µM
